Measurements taken from PubChem BioAssay (NCI).
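GI50: concentration for 50% inhibition of growth. TGI: total growth inhibition.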

Experiments:
Experiment in all cases: inhibition of tumour cell growth, NCI panel, 384-well format
ACHN renal = system: ACHN renal
BT-549 breast = system: BT-549 breast
MOLT-4 leukemia = system: MOLT-4 leukemia
UACC-62 melanoma = system: UACC-62 melanoma
NCI-H460 NSCLC = system: NCI-H460 NSCLC
CAKI-1 renal = system: CAKI-1 renal
NCI-H226 lung = system: NCI-H226 lung
EKVX NSCLC = system: EKVX NSCLC
A549 NSCLC = system: A549 NSCLC
MDA-MB-435 melanoma = system: MDA-MB-435 melanoma
SK-MEL-28 melanoma = system: SK-MEL-28 melanoma
UO-31 renal = system: UO-31 renal
HCC-2998 colon = system: HCC-2998 colon
KM12 colon = system: KM12 colon
HT29 colon = system: HT29 colon
NCI-H322M lung = system: NCI-H322M lung
MDA-MB-468 breast = system: MDA-MB-468 breast
MCF7 breast = system: MCF7 breast
SK-MEL-5 melanoma = system: SK-MEL-5 melanoma
HOP-92 NSCLC = system: HOP-92 NSCLC
HOP-62 NSCLC = system: HOP-62 NSCLC
SF-539 CNS = system: SF-539 CNS
DU-145 prostate = system: DU-145 prostate
SR leukemia = system: SR leukemia
NCI/ADR-RES ovarian = system: NCI/ADR-RES ovarian
UACC-257 melanoma = system: UACC-257 melanoma
M14 melanoma = system: M14 melanoma
SN12C renal = system: SN12C renal
OVCAR-8 ovarian = system: OVCAR-8 ovarian
U251 glioblastoma = system: U251 glioblastoma
IGROV1 ovarian = system: IGROV1 ovarian
HCT-116 colon = system: HCT-116 colon
786-0 renal = system: 786-0 renal
MDA-MB-231 breast = system: MDA-MB-231 breast
SNB-19 CNS = system: SNB-19 CNS
CCRF-CEM leukemia = system: CCRF-CEM leukemia
K-562 leukemia = system: K-562 leukemia
T-47D breast = system: T-47D breast
HL-60(TB) leukemia = system: HL-60(TB) leukemia
SF-295 CNS = system: SF-295 CNS
OVCAR-3 ovarian = system: OVCAR-3 ovarian
SF-268 CNS = system: SF-268 CNS
RPMI-8226 leukemia = system: RPMI-8226 leukemia
SNB-75 CNS = system: SNB-75 CNS
HS 578T breast = system: HS 578T breast
COLO 205 colon = system: COLO 205 colon
OVCAR-4 ovarian = system: OVCAR-4 ovarian
RXF 393 renal = system: RXF 393 renal
NCI-H23 lung = system: NCI-H23 lung
SK-OV-3 ovarian = system: SK-OV-3 ovarian
LOX IMVI melanoma = system: LOX IMVI melanoma
NCI-H522 lung = system: NCI-H522 lung
MALME-3M melanoma = system: MALME-3M melanoma
SW-620 colon = system: SW-620 colon
TK-10 renal = system: TK-10 renal
A498 renal = system: A498 renal
HCT-15 colon = system: HCT-15 colon
PC-3 prostate = system: PC-3 prostate

With `CCCN(CCC)C(=O)C1=Cc2ccc(-c3ccc(C(=O)N4CCCC4)cc3)cc2N=C(N)C1` the GI50 (ACHN renal) was 10.8 µM, the TGI (ACHN renal) was 23.5 µM and the GI50 (BT-549 breast) was 4.19 µM. It also gave a TGI (BT-549 breast) of 14.8 µM, a GI50 (MOLT-4 leukemia) of 2.51 µM and a TGI (MOLT-4 leukemia) of 8.74 µM. The GI50 (UACC-62 melanoma) was 4.59 µM, the TGI (UACC-62 melanoma) was 16.4 µM and the GI50 (NCI-H460 NSCLC) was 2.23 µM. The TGI (NCI-H460 NSCLC) was 5.31 µM, the GI50 (CAKI-1 renal) was 5.86 µM and the TGI (CAKI-1 renal) was 19.2 µM. The GI50 (NCI-H226 lung) was 10.7 µM, the TGI (NCI-H226 lung) was 23.8 µM and the GI50 (EKVX NSCLC) was 3.93 µM. The TGI (EKVX NSCLC) was 16.5 µM, the GI50 (A549 NSCLC) was 6.2 µM and the TGI (A549 NSCLC) was 19.9 µM. It also gave a GI50 (MDA-MB-435 melanoma) of 2.2 µM, a TGI (MDA-MB-435 melanoma) of 5.73 µM and a GI50 (SK-MEL-28 melanoma) of 11 µM. The TGI (SK-MEL-28 melanoma) was 23 µM, the GI50 (UO-31 renal) was 8.31 µM and the TGI (UO-31 renal) was 21.1 µM. The GI50 (HCC-2998 colon) was 5.42 µM, the TGI (HCC-2998 colon) was 18.3 µM and the GI50 (KM12 colon) was 2.81 µM. It also gave a TGI (KM12 colon) of 11.2 µM, a GI50 (HT29 colon) of 3.41 µM and a TGI (HT29 colon) of 11.9 µM. It also gave a GI50 (NCI-H322M lung) of 7.93 µM, a TGI (NCI-H322M lung) of 20.6 µM and a GI50 (MDA-MB-468 breast) of 1.63 µM. It also gave a TGI (MDA-MB-468 breast) of 5.02 µM, a GI50 (MCF7 breast) of 3.11 µM and a TGI (MCF7 breast) of 12.1 µM. The GI50 (SK-MEL-5 melanoma) was 1.6 µM, the TGI (SK-MEL-5 melanoma) was 3.65 µM and the GI50 (HOP-92 NSCLC) was 4 µM. It also gave a TGI (HOP-92 NSCLC) of 15.7 µM, a GI50 (HOP-62 NSCLC) of 3.07 µM and a TGI (HOP-62 NSCLC) of 11.7 µM. For the same molecule, the GI50 (SF-539 CNS) was 3.99 µM, the TGI (SF-539 CNS) was 16.6 µM and the GI50 (DU-145 prostate) was 9.15 µM. It also gave a TGI (DU-145 prostate) of 22.2 µM, a GI50 (SR leukemia) of 1.31 µM and a TGI (SR leukemia) of 3.21 µM. It also gave a GI50 (NCI/ADR-RES ovarian) of 12.8 µM, a TGI (NCI/ADR-RES ovarian) of 27.9 µM and a GI50 (UACC-257 melanoma) of 5.77 µM. It also gave a TGI (UACC-257 melanoma) of 18.7 µM, a GI50 (M14 melanoma) of 3.76 µM and a TGI (M14 melanoma) of 13 µM. The GI50 (SN12C renal) was 13.4 µM, the TGI (SN12C renal) was 29.4 µM and the GI50 (OVCAR-8 ovarian) was 8.34 µM. The TGI (OVCAR-8 ovarian) was 21.4 µM, the GI50 (U251 glioblastoma) was 5.15 µM and the TGI (U251 glioblastoma) was 17.4 µM. The GI50 (IGROV1 ovarian) was 10 µM, the TGI (IGROV1 ovarian) was 23.4 µM and the GI50 (HCT-116 colon) was 3.47 µM. For the same molecule, the TGI (HCT-116 colon) was 13.1 µM, the GI50 ([…]-0 renal) was 4.81 µM and the TGI (786-0 renal) was 16.6 µM. The GI50 (MDA-MB-231 breast) was 5.09 µM, the TGI (MDA-MB-231 breast) was 17.5 µM and the GI50 (SNB-19 CNS) was 4.95 µM. It also gave a TGI (SNB-19 CNS) of 17.4 µM, a GI50 (CCRF-CEM leukemia) of 3.53 µM and a TGI (CCRF-CEM leukemia) of 11.2 µM. For the same molecule, the GI50 (K-562 leukemia) was 2.52 µM, the TGI (K-562 leukemia) was 10.3 µM and the GI50 (T-47D breast) was 3.02 µM. It also gave a TGI (T-47D breast) of 14.4 µM, a GI50 (HL-60(TB) leukemia) of 1.52 µM and a TGI (HL-60(TB) leukemia) of 2.86 µM. The GI50 (SF-295 CNS) was 3.42 µM, the TGI (SF-295 CNS) was 12.9 µM and the GI50 (OVCAR-3 ovarian) was 2.78 µM. It also gave a TGI (OVCAR-3 ovarian) of 6.51 µM, a GI50 (SF-268 CNS) of 5.11 µM and a TGI (SF-268 CNS) of 17.6 µM. The GI50 (RPMI-8226 leukemia) was 1.78 µM, the TGI (RPMI-8226 leukemia) was 5.78 µM and the GI50 (SNB-75 CNS) was 3.48 µM. It also gave a TGI (SNB-75 CNS) of 12.5 µM, a GI50 (HS 578T breast) of 3.34 µM and a TGI (HS 578T breast) of 12 µM. For the same molecule, the GI50 (COLO 205 colon) was 4.89 µM, the TGI (COLO 205 colon) was 16.9 µM and the GI50 (OVCAR-4 ovarian) was 12.4 µM. The TGI (OVCAR-4 ovarian) was 26 µM, the GI50 (RXF 393 renal) was 2.52 µM and the TGI (RXF 393 renal) was 10.4 µM. For the same molecule, the GI50 (NCI-H23 lung) was 3.67 µM, the TGI (NCI-H23 lung) was 14.7 µM and the GI50 (SK-OV-3 ovarian) was 5.22 µM. The TGI (SK-OV-3 ovarian) was 17.2 µM, the GI50 (LOX IMVI melanoma) was 5.71 µM and the TGI (LOX IMVI melanoma) was 18.2 µM. The GI50 (NCI-H522 lung) was 2.69 µM, the TGI (NCI-H522 lung) was 10.3 µM and the GI50 (MALME-3M melanoma) was 3.81 µM. For the same molecule, the TGI (MALME-3M melanoma) was 14.6 µM, the GI50 (SW-620 colon) was 4.06 µM and the TGI (SW-620 colon) was 14.6 µM. For the same molecule, the GI50 (TK-10 renal) was 10.3 µM, the TGI (TK-10 renal) was 23.3 µM and the GI50 (A498 renal) was 3.93 µM. It also gave a TGI (A498 renal) of 15.3 µM, a GI50 (HCT-15 colon) of 3.48 µM and a TGI (HCT-15 colon) of 14.1 µM. It also gave a GI50 (PC-3 prostate) of 3.66 µM and a TGI (PC-3 prostate) of 13.9 µM.
